Experimental data from ChEMBL document CHEMBL4507262, “Data for DCP probe A-1596586” (2021).

Legend:
[1] = molecular target: Sodium-dependent serotonin transporter (Homo sapiens) (UniProt P31645); test: 5-HT transporter (h) Eurofins-Cerep binding assay; parameters: ligand concentration 2 nM; conditions: filed as antagonist, Compound concentration 10.0 uM
[2] = molecular target: Histamine H1 receptor (Homo sapiens) (UniProt P35367); test: H1 (h) Eurofins-Cerep binding assay; parameters: ligand concentration 1 nM; conditions: filed as antagonist, Compound concentration 10.0 uM
[3] = molecular target: Inhibitor of nuclear factor kappa-B kinase subunit epsilon (Homo sapiens) (UniProt Q14164); conditions: Compound concentration 1000.0 nM
[4] = molecular target: Ephrin type-A receptor 7 (Homo sapiens) (UniProt Q15375); conditions: Compound concentration 1000.0 nM
[5] = molecular target: Calcium-dependent protein kinase 1 (Plasmodium falciparum) (UniProt P62344); conditions: Compound concentration 1000.0 nM
[6] = molecular target: Serine/threonine-protein kinase tousled-like 2 (Homo sapiens) (UniProt Q86UE8); conditions: Compound concentration 1000.0 nM
[7] = molecular target: Protein-tyrosine kinase 2-beta (Homo sapiens) (UniProt Q14289); conditions: Compound concentration 1000.0 nM
[8] = molecular target: Myosin-IIIa (Homo sapiens) (UniProt Q8NEV4); conditions: Compound concentration 1000.0 nM
[9] = molecular target: Serine/threonine-protein kinase Nek4 (Homo sapiens) (UniProt P51957); conditions: Compound concentration 1000.0 nM
[10] = tested on: Epidermal growth factor receptor (Homo sapiens), P00533 [G719C]; conditions: Compound concentration 1000.0 nM
[11] = molecular target: Ephrin type-A receptor 3 (Homo sapiens) (UniProt P29320); conditions: Compound concentration 1000.0 nM
[12] = tested on: Receptor-type tyrosine-protein kinase FLT3 (Homo sapiens), P36888 [N841I]; conditions: Compound concentration 1000.0 nM
[13] = tested on: Tyrosine-protein kinase ABL1 (Homo sapiens), P00519 [Q252H]; conditions: Compound concentration 1000.0 nM
[14] = molecular target: Serine/threonine-protein kinase PAK 1 (Homo sapiens) (UniProt Q13153); conditions: Compound concentration 1000.0 nM
[15] = molecular target: Testis-specific serine/threonine-protein kinase 3 (Homo sapiens) (UniProt Q96PN8); conditions: Compound concentration 1000.0 nM
[16] = tested on: Fibroblast growth factor receptor 3 (Homo sapiens), P22607 [G697C]; conditions: Compound concentration 1000.0 nM
[17] = molecular target: Glutamate NMDA receptor (Rattus norvegicus) (UniProt P35439+Q00959+Q00960+Q00961+Q62645+Q8VHN2+Q9R1M7); test: NMDA Eurofins-Cerep binding assay; type: protein-complex assay; parameters: ligand concentration 5 nM; conditions: filed as antagonist, Compound concentration 10.0 uM
[18] = tested on: Tyrosine-protein kinase ABL1 (Homo sapiens), P00519 [F317I]; conditions: Compound concentration 1000.0 nM
[19] = molecular target: Receptor tyrosine-protein kinase erbB-2 (Homo sapiens) (UniProt P04626); conditions: Compound concentration 1000.0 nM
[20] = tested on: Receptor-type tyrosine-protein kinase FLT3 (Homo sapiens), P36888 [UNDEFINED MUTATION]; conditions: Compound concentration 1000.0 nM
[21] = molecular target: D(1B) dopamine receptor (Homo sapiens) (UniProt P21918); conditions: Compound concentration 10.0 uM
[22] = molecular target: Ephrin type-A receptor 6 (Homo sapiens) (UniProt Q9UF33); conditions: Compound concentration 1000.0 nM
[23] = tested on: Phosphatidylinositol 4,5-bisphosphate 3-kinase catalytic subunit alpha isoform (Homo sapiens), P42336 [E545K]; conditions: Compound concentration 1000.0 nM
[24] = tested on: Epidermal growth factor receptor (Homo sapiens), P00533 [UNDEFINED MUTATION]; conditions: Compound concentration 1000.0 nM
[25] = molecular target: Delta-type opioid receptor (Homo sapiens) (UniProt P41143); test: delta (DOP) (h) Eurofins-Cerep binding assay; parameters: ligand concentration 0.5 nM; conditions: filed as agonist, Compound concentration 10.0 uM
[26] = molecular target: Ribosomal protein S6 kinase alpha-1 (Homo sapiens) (UniProt Q15418); conditions: Compound concentration 1000.0 nM
[27] = molecular target: Tyrosine-protein kinase Lck (Homo sapiens) (UniProt P06239); conditions: Compound concentration 1000.0 nM
[28] = molecular target: Serine/threonine-protein kinase SIK2 (Homo sapiens) (UniProt Q9H0K1); conditions: Compound concentration 1000.0 nM
[29] = molecular target: Serine/threonine-protein kinase Nek10 (Homo sapiens) (UniProt Q6ZWH5); conditions: Compound concentration 1000.0 nM
[30] = molecular target: GABA-A receptor; anion channel (Rattus norvegicus) (UniProt O09028+P15431+P18506+P18508+P19969+P20236+P23574+P23576+P28471+P28473+P30191+P62813+P63079+P63138+Q91ZM7+Q9ES14); test: Cl- channel (GABA-gated) Eurofins-Cerep binding assay; type: protein-complex assay; parameters: ligand concentration 3 nM; conditions: filed as antagonist, Compound concentration 10.0 uM
[31] = molecular target: T1, Alpha-1B adrenergic receptor (Homo sapiens) (UniProt P35368); conditions: Compound concentration 10.0 uM
T1 sequence (whole entry): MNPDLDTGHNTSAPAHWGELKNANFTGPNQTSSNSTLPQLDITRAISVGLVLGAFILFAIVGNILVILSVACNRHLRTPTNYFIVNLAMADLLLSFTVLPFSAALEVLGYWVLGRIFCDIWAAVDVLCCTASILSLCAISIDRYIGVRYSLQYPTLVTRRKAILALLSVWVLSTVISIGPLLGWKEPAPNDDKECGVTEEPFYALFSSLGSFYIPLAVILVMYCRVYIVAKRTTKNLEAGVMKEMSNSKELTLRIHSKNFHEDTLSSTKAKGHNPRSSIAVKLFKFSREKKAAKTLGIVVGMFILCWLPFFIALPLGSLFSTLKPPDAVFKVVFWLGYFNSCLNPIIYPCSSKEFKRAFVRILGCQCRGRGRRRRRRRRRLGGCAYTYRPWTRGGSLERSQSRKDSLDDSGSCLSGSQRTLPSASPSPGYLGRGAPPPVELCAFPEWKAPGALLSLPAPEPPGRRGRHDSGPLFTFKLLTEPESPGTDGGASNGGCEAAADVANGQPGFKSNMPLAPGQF

[32] = tested on: Hepatocyte growth factor receptor (Homo sapiens), P08581 [M1250T]; conditions: Compound concentration 1000.0 nM
[33] = molecular target: Sodium/potassium-transporting ATPase (Sus scrofa) (UniProt P05027+P05024+D2WKD8+D2WKD7+F1ST41); test: ATPase (Na+/K+) Eurofins-Cerep enzyme and uptake assay; type: protein-complex assay; conditions: Compound concentration 10.0 uM
[34] = molecular target: Fibroblast growth factor receptor 4 (Homo sapiens) (UniProt P22455); conditions: Compound concentration 1000.0 nM
[35] = molecular target: Fibroblast growth factor receptor 1 (Homo sapiens) (UniProt P11362); conditions: Compound concentration 1000.0 nM

Chain of Ephrin type-A receptor 6 (Homo sapiens) (Q9UF33 whole entry, canonical isoform): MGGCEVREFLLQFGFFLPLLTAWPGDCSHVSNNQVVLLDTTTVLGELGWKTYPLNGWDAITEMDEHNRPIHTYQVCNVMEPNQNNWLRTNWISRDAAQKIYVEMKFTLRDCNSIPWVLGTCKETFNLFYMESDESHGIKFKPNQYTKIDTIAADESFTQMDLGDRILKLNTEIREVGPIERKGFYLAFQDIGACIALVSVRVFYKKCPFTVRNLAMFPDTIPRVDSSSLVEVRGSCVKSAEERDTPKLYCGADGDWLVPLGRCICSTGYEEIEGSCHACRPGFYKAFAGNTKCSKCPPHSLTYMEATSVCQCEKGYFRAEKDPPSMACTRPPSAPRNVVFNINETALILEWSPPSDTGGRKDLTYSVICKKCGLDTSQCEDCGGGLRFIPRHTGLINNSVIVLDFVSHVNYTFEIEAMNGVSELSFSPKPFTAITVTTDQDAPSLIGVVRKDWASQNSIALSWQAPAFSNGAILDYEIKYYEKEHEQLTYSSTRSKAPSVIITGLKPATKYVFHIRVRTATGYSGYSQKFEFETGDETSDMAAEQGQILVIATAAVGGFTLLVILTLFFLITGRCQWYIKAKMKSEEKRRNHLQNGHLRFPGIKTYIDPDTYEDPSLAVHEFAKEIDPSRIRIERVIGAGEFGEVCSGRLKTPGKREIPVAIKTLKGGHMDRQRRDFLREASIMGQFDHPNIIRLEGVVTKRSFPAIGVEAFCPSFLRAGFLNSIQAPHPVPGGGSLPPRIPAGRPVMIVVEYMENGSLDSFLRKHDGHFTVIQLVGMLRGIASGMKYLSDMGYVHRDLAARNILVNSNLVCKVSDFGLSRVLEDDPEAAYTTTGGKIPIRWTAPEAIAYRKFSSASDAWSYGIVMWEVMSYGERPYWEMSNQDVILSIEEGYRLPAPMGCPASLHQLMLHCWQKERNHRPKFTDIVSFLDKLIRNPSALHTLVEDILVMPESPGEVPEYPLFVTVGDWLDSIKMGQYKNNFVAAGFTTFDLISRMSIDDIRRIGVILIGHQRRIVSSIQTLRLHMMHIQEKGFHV
Chain of Testis-specific serine/threonine-protein kinase 3 (Homo sapiens) (Q96PN8 whole entry): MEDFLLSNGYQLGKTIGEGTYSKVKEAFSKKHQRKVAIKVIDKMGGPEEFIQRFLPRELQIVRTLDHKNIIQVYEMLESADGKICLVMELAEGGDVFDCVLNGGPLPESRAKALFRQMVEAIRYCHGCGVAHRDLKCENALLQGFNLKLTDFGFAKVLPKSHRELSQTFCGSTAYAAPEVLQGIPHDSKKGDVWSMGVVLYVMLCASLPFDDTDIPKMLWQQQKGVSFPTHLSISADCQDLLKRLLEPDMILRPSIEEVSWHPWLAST
Chain of Sodium-dependent serotonin transporter (Homo sapiens) (P31645 whole entry, looked up): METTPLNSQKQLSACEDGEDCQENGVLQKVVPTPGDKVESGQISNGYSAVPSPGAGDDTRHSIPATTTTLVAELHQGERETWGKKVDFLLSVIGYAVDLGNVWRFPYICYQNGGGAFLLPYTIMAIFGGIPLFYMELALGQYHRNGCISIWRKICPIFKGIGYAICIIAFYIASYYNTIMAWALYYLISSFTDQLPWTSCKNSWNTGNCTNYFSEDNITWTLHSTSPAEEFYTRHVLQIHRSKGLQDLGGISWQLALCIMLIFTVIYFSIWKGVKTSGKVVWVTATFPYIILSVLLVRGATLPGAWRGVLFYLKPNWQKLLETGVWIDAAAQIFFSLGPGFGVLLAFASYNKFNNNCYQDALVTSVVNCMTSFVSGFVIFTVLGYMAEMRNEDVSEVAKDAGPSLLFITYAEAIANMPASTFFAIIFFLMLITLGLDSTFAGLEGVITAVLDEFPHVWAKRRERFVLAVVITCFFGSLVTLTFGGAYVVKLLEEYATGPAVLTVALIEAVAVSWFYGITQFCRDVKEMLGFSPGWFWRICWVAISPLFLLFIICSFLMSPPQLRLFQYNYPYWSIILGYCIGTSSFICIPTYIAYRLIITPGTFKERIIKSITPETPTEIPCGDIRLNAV
Chain of Phosphatidylinositol 4,5-bisphosphate 3-kinase catalytic subunit alpha isoform (Homo sapiens), P42336 [E545K] (P42336 whole entry E545K, canonical isoform): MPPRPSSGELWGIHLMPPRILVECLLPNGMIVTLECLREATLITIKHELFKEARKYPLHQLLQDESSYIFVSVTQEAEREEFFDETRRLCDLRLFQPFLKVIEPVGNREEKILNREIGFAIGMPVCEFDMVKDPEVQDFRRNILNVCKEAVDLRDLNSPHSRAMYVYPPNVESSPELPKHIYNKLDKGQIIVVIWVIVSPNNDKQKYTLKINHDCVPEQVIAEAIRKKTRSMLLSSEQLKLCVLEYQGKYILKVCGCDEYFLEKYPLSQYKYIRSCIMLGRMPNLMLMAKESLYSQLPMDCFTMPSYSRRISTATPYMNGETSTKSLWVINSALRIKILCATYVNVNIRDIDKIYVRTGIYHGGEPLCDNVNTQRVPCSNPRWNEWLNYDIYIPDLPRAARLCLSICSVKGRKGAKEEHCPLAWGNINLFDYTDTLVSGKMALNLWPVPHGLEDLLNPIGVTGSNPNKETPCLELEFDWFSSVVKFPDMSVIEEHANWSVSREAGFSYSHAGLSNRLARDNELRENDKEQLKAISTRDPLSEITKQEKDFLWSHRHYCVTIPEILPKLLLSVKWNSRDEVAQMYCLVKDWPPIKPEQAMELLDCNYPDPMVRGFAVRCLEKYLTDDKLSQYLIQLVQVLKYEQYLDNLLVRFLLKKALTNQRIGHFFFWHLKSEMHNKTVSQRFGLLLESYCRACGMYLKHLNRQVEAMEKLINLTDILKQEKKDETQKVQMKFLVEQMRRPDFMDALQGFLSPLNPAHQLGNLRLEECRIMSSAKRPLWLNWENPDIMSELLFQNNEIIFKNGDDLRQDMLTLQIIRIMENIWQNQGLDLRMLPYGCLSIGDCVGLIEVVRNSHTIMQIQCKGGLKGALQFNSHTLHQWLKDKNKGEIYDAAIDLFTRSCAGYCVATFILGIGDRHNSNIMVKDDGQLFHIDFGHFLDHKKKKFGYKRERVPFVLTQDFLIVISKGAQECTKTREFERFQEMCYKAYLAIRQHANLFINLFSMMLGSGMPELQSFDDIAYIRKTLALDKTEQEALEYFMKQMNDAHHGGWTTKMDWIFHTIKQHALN
Chain of Serine/threonine-protein kinase Nek4 (Homo sapiens) (P51957 whole entry, looked up): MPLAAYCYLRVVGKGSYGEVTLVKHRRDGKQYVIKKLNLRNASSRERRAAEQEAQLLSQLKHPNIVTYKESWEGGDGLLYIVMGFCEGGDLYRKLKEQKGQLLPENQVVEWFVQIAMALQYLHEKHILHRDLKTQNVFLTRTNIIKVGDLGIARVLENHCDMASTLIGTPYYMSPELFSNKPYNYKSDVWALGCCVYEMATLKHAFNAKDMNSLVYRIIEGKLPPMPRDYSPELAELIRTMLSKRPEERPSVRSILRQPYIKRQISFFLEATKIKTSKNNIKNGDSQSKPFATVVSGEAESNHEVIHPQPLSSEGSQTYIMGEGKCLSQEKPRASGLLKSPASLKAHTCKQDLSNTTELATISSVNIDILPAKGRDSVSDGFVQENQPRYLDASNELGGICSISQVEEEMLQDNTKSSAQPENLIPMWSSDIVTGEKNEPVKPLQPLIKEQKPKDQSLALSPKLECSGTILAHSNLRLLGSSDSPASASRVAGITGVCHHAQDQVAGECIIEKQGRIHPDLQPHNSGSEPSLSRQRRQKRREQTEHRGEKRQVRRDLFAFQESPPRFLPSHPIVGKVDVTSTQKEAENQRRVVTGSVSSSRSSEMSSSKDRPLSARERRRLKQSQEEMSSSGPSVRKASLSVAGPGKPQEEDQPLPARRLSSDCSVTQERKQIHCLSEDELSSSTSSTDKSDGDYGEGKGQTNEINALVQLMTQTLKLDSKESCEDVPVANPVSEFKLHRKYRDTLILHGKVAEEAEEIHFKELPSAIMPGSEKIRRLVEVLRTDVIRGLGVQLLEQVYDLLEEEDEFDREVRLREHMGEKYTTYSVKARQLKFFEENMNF
Chain of Ephrin type-A receptor 7 (Homo sapiens) (Q15375 28-998 limits assumed): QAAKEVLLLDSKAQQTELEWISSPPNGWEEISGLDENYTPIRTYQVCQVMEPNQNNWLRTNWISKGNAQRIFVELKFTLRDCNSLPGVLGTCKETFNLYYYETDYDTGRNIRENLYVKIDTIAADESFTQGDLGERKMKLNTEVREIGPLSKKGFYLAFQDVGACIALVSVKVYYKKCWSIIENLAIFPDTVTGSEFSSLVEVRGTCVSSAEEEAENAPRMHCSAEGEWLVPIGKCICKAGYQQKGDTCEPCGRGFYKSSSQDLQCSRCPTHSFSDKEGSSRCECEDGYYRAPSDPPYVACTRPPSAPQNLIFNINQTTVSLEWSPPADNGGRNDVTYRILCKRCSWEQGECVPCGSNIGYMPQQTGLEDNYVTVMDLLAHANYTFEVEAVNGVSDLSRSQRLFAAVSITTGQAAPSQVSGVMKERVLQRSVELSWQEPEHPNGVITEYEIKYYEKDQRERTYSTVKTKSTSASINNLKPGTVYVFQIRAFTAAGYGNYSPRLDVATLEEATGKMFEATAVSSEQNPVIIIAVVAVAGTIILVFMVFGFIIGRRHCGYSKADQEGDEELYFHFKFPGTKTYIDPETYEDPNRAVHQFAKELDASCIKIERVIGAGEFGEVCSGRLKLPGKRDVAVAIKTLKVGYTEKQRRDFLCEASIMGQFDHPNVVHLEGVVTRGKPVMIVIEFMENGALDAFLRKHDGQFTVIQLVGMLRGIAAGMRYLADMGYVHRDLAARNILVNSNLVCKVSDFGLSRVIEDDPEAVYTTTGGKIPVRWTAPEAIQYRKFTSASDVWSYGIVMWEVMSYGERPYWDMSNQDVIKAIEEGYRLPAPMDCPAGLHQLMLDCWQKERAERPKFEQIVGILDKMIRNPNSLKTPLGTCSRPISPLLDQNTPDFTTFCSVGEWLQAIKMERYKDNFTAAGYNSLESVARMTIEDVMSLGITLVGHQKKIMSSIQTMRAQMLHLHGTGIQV

Structure (SMILES) | % Inhibition of Control Specific Binding (Mean n=2) [1] [%] | % Inhibition of Control Specific Binding (Mean n=2) [2] [%] | residual activity [3] [%] | residual activity [4] [%] | residual activity [5] [%] | residual activity [6] [%] | residual activity [7] [%] | residual activity [8] [%] | residual activity [9] [%] | residual activity [10] [%] | residual activity [11] [%] | residual activity [12] [%] | residual activity [13] [%] | residual activity [14] [%] | residual activity [15] [%] | residual activity [16] [%] | % Inhibition of Control Specific Binding (Mean n=2) [17] [%] | residual activity [18] [%] | residual activity [19] [%] | residual activity [20] [%] | also measured
COc1ccc2c(c1)O[C@@H](c1ccc(OC)c(OC)c1)C[C@H]2NC(=O)C1(c2ccc3c(c2)OC(F)(F)O3)CC1 [A-1596586] | 11.7 | 6.7 | 70 | 86 | 70 | 100 | 100 | 93 | 75 | 96 | 91 | 100 | 93 | 89 | 57 | 95 | 8.7 | 93 | 75 | 100 | inhibition [21]: 20.7%; residual activity [22]: 89%; residual activity [23]: 77%; residual activity [24]: 100%; % Inhibition of Control Specific Binding (Mean n=2) [25]: 8.8%; residual activity [26]: 85%; residual activity [27]: 100%; residual activity [28]: 95%; residual activity [29]: 86%; % Inhibition of Control Specific Binding (Mean n=2) [30]: 57.7%; inhibition [31]: 49%; residual activity [32]: 95%; % Inhibition of Control Values (Mean n=2) [33]: 0.8%; residual activity [34]: 90%; residual activity [35]: 90%
COc1ccc2c(c1)O[C@H](c1ccc(OC)c(OC)c1)C[C@@H]2NC(=O)C1(c2ccc3c(c2)OC(F)(F)O3)CC1 [A-1596584] | 7 | 4.5 | 96 | 100 | 79 | 98 | 100 | 100 | 86 | 100 | 100 | 100 | 100 | 100 | 100 | 93 | 1.3 | 100 | 100 | 100 | inhibition [21]: 20%; residual activity [22]: 100%; residual activity [23]: 91%; residual activity [24]: 100%; % Inhibition of Control Specific Binding (Mean n=2) [25]: 2.2%; residual activity [26]: 100%; residual activity [27]: 100%; residual activity [28]: 100%; residual activity [29]: 100%; % Inhibition of Control Specific Binding (Mean n=2) [30]: 82.4%; inhibition [31]: 5.97%; residual activity [32]: 89%; % Inhibition of Control Values (Mean n=2) [33]: 2.2%; residual activity [34]: 100%; residual activity [35]: 87%
